# From publication PMC12405480, “Endogenous ligands of bovine FFAR2/GPR43 display distinct pharmacological properties” (Frontiers in Cell and Developmental Biology, 2025)
# Target: T1, bFFAR2 (bovine FFAR2/GPR43) (Bos taurus, UniProt A0ACM8QIU6)
# T1 construct: full-length synthetic cDNA, N-terminal FLAG tag; transiently expressed in HEK293A cells
# T1 sequence (A0ACM8QIU6 1-329): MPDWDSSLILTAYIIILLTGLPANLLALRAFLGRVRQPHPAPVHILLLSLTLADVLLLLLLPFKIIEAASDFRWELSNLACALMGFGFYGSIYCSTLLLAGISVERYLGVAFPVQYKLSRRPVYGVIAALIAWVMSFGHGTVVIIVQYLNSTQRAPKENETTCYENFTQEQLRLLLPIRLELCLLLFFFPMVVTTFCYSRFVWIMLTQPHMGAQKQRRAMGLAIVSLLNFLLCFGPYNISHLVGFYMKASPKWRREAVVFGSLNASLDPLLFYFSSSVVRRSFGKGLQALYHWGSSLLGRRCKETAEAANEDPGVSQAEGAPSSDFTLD
# Assay: SRE luciferase reporter gene assay, HEK293A expressing bFFAR2
# Assay type: cell-based
# Conditions: not given
# Description: SRE luciferase reporter gene assay, HEK293A expressing bFFAR2 on bFFAR2 (bovine FFAR2/GPR43)
row,EC50 [µM],Structure (SMILES)
1,234,"CC(C)C(=O)O [2MP, 2-methyl-propanoic acid]"

# Target: T1, bFFAR2 (bovine FFAR2/GPR43)
# Assay: BRET, mini-Gαi recruitment to bFFAR2-Rluc8, HEK293A
# Assay type: cell-based
# Conditions: not given
# Description: BRET, mini-Gαi recruitment to bFFAR2-Rluc8, HEK293A on bFFAR2 (bovine FFAR2/GPR43)
row,EC50 [µM],Structure (SMILES)
1,129,CCCC(=O)O [C4:0]
2,9770,CC(=O)O [C2:0]
3,977,CCC(=O)O [C3:0]
4,75.9,"CC(C)CC(=O)O [3MB, 3-methyl-butanoic acid]"
5,61.7,CCCCC(=O)O [C5:0]
6,72.4,CCCCCC(=O)O [C6:0]
7,126,CCCCCCC(=O)O [C7:0]

# Same assay, conditions: partial agonist; AUC over 10 min; -log10 of EC50; unreliable (EC50 above the 1 mM dose of Figure 1)
row,mGαi recruitment,Structure (SMILES)
1,2.57 ± 0.40,CCCCCCCC(=O)O [C8:0]
